Where two headings read alike, the source gives them in different places. Peptide text beside a SMILES is read from it. * marks the point of attachment. Palmitoyl = CCCCCCCCCCCCCCCC(=O)*

For data set [1] the following is noted: cited from earlier work.
For data set [2] the following is noted: cited from earlier work. From the text:
Supplement mmc1.docx, table 1: Table S1. Lipopeptide-based drugs, with their characteristics, disease target, and the year of approval. | column: Plasma protein binding
The source holds these as a separate data set.

For another data set, the system named is MRSA strain. Further details: method as in PMID 34822969. Conditions: cited from earlier work. From the text:
(§1) However, since this peptide contains only four amino aci ...

A further data set deals with S. aureus. Further details: method as in 2 sources, one per row (each row's own in cited_ref): ref 69 = [69]; PMID 34822969; doi:10.1016/j.micpath.2021.105301; 69 Roshanak S. Shahidi F. Tabatabaei Yazdi F. Buforin I an alternative to conventional antibiotics: Evaluation of the antimicrobial properties, stability, and safety Microb. Pathog. 161 2021 105301 10 ||| ref 53,70 = [53]; PMID 10890923; doi:10.1073/pnas.150518097; 53 Park C.B. Yi K.S. Matsuzaki K. Structure-activity analysis of buforin II, a histone H2A-derived antimicrobial peptide: The proline hinge is responsible for the cell-penetrating ability of buforin I || [70]; 70 Lee H. Yang S. Dimerization of cell-penetrating buforin II enhances antimicrobial properties J. Anal. Sci. Technol. 12 2021 9. Conditions: cited from earlier work.
From the text: as §1

The nature of data set [3]: DLS of peptide-loaded poloxamer micelles. Conditions: lipopeptide-loaded Plur123 micelles, DLS 37 °C. The format is physicochemical. The procedure:
Peptide-loaded poloxamer micelles were prepared by solubilizing the peptides in 50 g/L poloxamer solutions in PBS (pH 7.4). The peptides were previously dissolved in DMSO, and then the poloxamer solutions were added. The final DMSO content was 5%. The solutions were left shaking overnight to allow enough time for solubilization. Before the measurements, PBS was added to the solutions to reach 5 g/L poloxamer concentration. In the biological experiments, these samples were diluted twice with the corresponding culture media.
The average hydrodynamic diameter (dH) and polydispersity of the peptide-loaded micelles were determined using a dynamic light scattering (DLS) instrument (NanoLab 3D^TM, LS Instruments, Fribourg, Switzerland) based on three-dimensional (3D) modulation technology. A fibre-coupled diode laser operating at 638 nm served as the light source. The measurements were performed at a detection angle of 90° and at temperatures of 37.00 ± 0.02 °C. The recorded autocorrelation functions were analyzed using the second order cumulant expansion method. Before the measurements, the samples were filtered with a 0.2 μm syringe filter.

Data set [4] in a line: Encapsulation efficacy: HPLC of lipopeptide passing 0.2 μm filter. In kind it is physicochemical. Conditions: poloxamer 5 g/L in PBS, peptide pre-dissolved in DMSO (pL1 200 μM, pCM15 100 μM, pATIPC 10 μM); centrifuged through 0.2 μm nylon filter, HPLC AUC vs fully solubilized lipopeptide. The procedure: Section S3 in the Supplementary data contains the detailed characterization of the mixed micelles (Fig. S7A). First, calibration curves were plotted for each lipopeptide in a medium in which the compounds were perfectly soluble, namely in eluent B (0.1% TFA in acetonitrile:water (4:1, V/V) solution) (Figs. S7B−D). Next, poloxamer-lipopeptide constructs were prepared as follows: the lipopeptide samples were pre-dissolved in DMSO and then mixed with the poloxamer/PBS solutions, left shaking overnight. In the next day, the concentration was adjusted by adding PBS to the solutions. The composition of the samples was as follows: poloxamer 5 g/L and peptides (pL1 200 μM, pCM15 100 μM, and pATIPC 10 μM). Then, lipopeptide/poloxamer constructs were centrifuged using a 0.2 μm nylon filter, diluted twice with eluent B, and injected to the HPLC column. […] The highest encapsulation efficacy was measured for the shortest lipopeptide pL1, and all three poloxamers formed mixed micelles with the lipopeptides in more than 80%. It was assumed that the filtered part of the samples contains the lipopeptide aggregates with particle size of […].
Fig. S7. Formulation of Lipopeptides with Poloxamers. Overview of the analytical characterization of the samples (A). Calibration curves for the fully solubilized lipopeptides with the linear regression equation (B-D). […]

The nature of data set [5]: Antigen release, dialysis membrane assay. Conditions: pATIPC-Plur123 mixed micelles (80 µM peptide, Plur123 40 g/L in PBS), dialysis 10K MWCO, 37 °C, after 4 h, HPLC AUC vs 0 h. The format is physicochemical. The procedure:
Lipopeptide release was assessed by incubating the mixed micelles in PBS at 37 °C for 6 hours, using the dialysis membrane method. Briefly, the pATIPC lipopeptide (80 µM) was dissolved in Plur123 (40 g/L, in PBS), mixed, then centrifuged using a 0.2 µm Nylon filter to remove the aggregated peptide particles. The formation of the mixed micelles was checked by DLS and the peptide content was measured by HPLC, as described above. Mixed micelle solution was then loaded into a Slide-A-Lyzer Mini Dialysis Device (10K MWCO) (Thermo Fisher Scientific, Waltham, MA, USA) and incubated at 37 °C using PBS as release medium. At 0, 1, 4 and 6 h, the micelles within the dialysis membrane were taken for measurements of particle size and distribution by DLS.

The subject of data set [6] is HT-29 colorectal adenocarcinoma cells. Kind of data set: In vitro antitumor effect, AlamarBlue. The format is cell-based, human. To be noted: 5 μM pCM15 lipopeptide, 24 h treatment, vs medium-treated control, mean ± SD, n = 4. The procedure: All data are presented as mean ± SD (n = 4). Statistical analysis was performed using one-way analysis of variance (ANOVA), followed by Tukey's post-hoc test. Statistical significances were denoted as ^∗P < 0.05, ^∗∗P < 0.01, and ^∗∗∗P < 0.001.

As for Insulin degludec, in data set [1] (approved drug characteristics), the Half-life is 25 h and the Route of elimination result was “Mainly urinary excretion”. Further, the Plasma protein binding in data set [2] (approved drug characteristics) is reported as greater than 99%.

Regarding Daptomycin, the Route of elimination result in data set [1] (approved drug characteristics) was “Urinary excretion”. The Plasma protein binding in data set [2] (approved drug characteristics) is listed as 90-94%.

Regarding “AGRGKQGGKVRAKAKTRSSRAGLQFPVGRVHRLLRKGNY [Buforin I]”, in the data set on MRSA strain, the “MIC for the MRSA strain” value is 14 µg/mL. Further, the “Concentration with activity against S. aureus” value in the data set with S. aureus is 10 µg/mL.

As to Dalbavancin, the Route of elimination entry in data set [1] (approved drug characteristics) was “Mainly through fecal excretion”. Also, in data set [2] (approved drug characteristics), the Plasma protein binding is on record as 93%.

As to Insulin detemir, in data set [1] (in vivo), the Half-life was 5 to 7 h and the Route of elimination result was “Mainly urinary excretion”. The Plasma protein binding in data set [2] was 98%.

For “pal-KLVANNTRLTKPK- (FFGINTIPIAC)-GGLIDIAPHQISSV [pATIPC]”, the “Increase in particle size after one week of storage as a solution” value in data set [3] was determined as 10 nm. Further, the “Encapsulation (lipopeptide in form <0.2 μm, in mixed micelles)” value in data set [4] is recorded as “around 60%”. For the same compound, in data set [5], the “pATIPC antigen remaining inside the micelles” value is “more than 50%”.

As to Micafungin, in data set [1] (approved drug characteristics), the Half-life is 14 to 17 h and the Route of elimination entry is “Mainly through fecal excretion”. Besides, the Plasma protein binding in data set [2] (approved drug characteristics) is on record as greater than 99%.

Caspofungin: in data set [1] (approved drug characteristics), the Half-life is 9 to 11 h; the Route of elimination entry is “Urinary and fecal excretion”. In addition, the Plasma protein binding in data set [2] (approved drug characteristics) was 97%.

Consider Polymyxin B, for which, in data set [1] (approved drug characteristics), the Half-life was 6 to 11.5 h and the Route of elimination entry is reported as “Mainly urinary excretion”.

Turning to Colistin, in data set [1] (in vivo), the Half-life is 5 h and the Route of elimination entry was “Mainly urinary excretion”. In data set [2], the Plasma protein binding is given as 50%.

On to `CCCCCCCCCCCCCCCC(=O)N[C@@H](CCCCN)C(=O)N[C@@H](Cc1c[nH]c2ccccc12)C(=O)N[C@@H](CCCCN)C(=O)N[C@@H](CC(C)C)C(=O)N[C@@H](Cc1ccccc1)C(=O)N[C@@H](CCCCN)C(=O)N[C@@H](CCCCN)C(=O)N[C@H](C(=O)NCC(=O)N[C@@H](C)C(=O)N[C@H](C(=O)N[C@@H](CC(C)C)C(=O)N[C@@H](CCCCN)C(=O)N[C@H](C(=O)N[C@@H](CC(C)C)C(N)=O)C(C)C)C(C)C)[C@@H](C)CC` [pCM15] (Palmitoyl-KWKLFKKIGAVLKVL-NH2), for which the Cytotoxicity in data set [6] is 35.0% ± 4.8.

Consider Rezafungin, for which, in data set [1] (approved drug characteristics), the Half-life is greater than 130 h and the Route of elimination entry is reported as “Mainly through fecal excretion”. Besides, the Plasma protein binding in data set [2] (approved drug characteristics) is listed as 87-99%.

Source of the values: article PMC11774939, “Optimizing lipopeptide bioactivity: The impact of non-ionic surfactant dressing” (Journal of Pharmaceutical Analysis, 2024).
